Series [1] is described as follows: Mouse pharmacokinetic assay. It is filed as in vivo, male ICR mice. As to conditions: male, ICR, plasma.
Series [2] in a line: Rat pharmacokinetic assay. It is filed as in vivo, male SD rats. On the procedure:
In a mouse pharmacokinetic assay, male ICR mice (20 g to 25 g) were selected and fasted overnight. Three mice were selected and intragastrically administered with 5 mg/kg of the corresponding compound. The blood of the mice was collected before the administration and at 15 min, 30 min, 1 h, 2 h, 4 h, 8 h, 24 h after the administration. Another 3 mice were intravenously administered with 1 mg/kg of the corresponding compound, and the blood thereof was collected before the administration and at 15 min, 30 min, 1 h, 2 h, 4 h, 8 h, 24 h after the administration. The blood samples were centrifuged at 6800 g at 2° C. to 8° C. for 6 minutes, and plasma was collected and stored at −80° C. The plasma was taken at respective time point, mixed with 3-5 times the amount of acetonitrile containing internal standard, vortexed for 1 minute, centrifuged at 4° C. for 10 minutes at 13000 rpm, supernatant was added 3 times the amount of water, and the appropriate mixture was taken for LC-MS/MS analysis. The primary pharmacokinetic parameters were analyzed with a WinNonlin 7.0 software, with non-compartmental model.
In a rat pharmacokinetic assay, male SD rats (180 g to 240 g) were selected and fasted overnight. Three rats were intragastrically administered with 5 mg/kg of the corresponding compound. Another 3 rats were intravenously administered with 1 mg/kg of the corresponding compound. The following operations were the same as the mouse pharmacokinetic assay.

Series [3] relates to CT-26 murine colon cancer tumor model. In words: Anti-tumor effect in CT-26 murine colon cancer tumor model in combination with radiation therapy. The class given is in vivo, mouse. As to conditions: 150 mg/kg intragastric once daily in combination with radiotherapy (3Gry, once on day 1); day 23; tumor weight. As for the experimental part:
In this assay, the anti-tumor effects of the control compound and the compounds prepared in Examples 1 to 43, in combination with radiation therapy, were tested in a CT-26 murine colon cancer tumor model.
After one week of adaptive feeding of mice, CT-26 cells in a log phase were resuspended in PBS, 5×10^5 CT-26 cells were inoculated subcutaneously at the right flank at 100 μL per mouse, and tumor growth was observed regularly. When the tumor grew to an average volume of 60 to 80 mm^3, the mice carrying the tumor were randomly divided into 5 groups based on the tumor volume size, each group containing 10 mice of 10. These group were a group of Control compound (150 mg/kg) in combination with radiotherapy (3Gry), a group of Compound I-2 (150 mg/kg) in combination with radiotherapy, a group of Compound I-5 (150 mg/kg) in combination with radiotherapy, a group of radiotherapy (3Gry) alone, and a group of vehicle control. The mice were intragastrically administered with the corresponding compound once daily, for 23 days in total; radiation therapy was performed for one-time on the first day of the administration. Tumor volumes and mouse body weights were measured twice a week, and tumor weights were weighed at the end of the experiment. Efficacy evaluations were performed based on relative tumor inhibition (TGI), safety evaluations were performed based on changes in animal body weight and death. Tumor volume and relative tumor inhibition were calculated as follows:
Tumor volume (TV)=½×a×b^2, where a and b are the length and width of the tumor measurement, respectively.
Relative tumor inhibition rate TGI (%)=(TWc−TWt/TWc)×100%, where TWc is the mean tumor weight of the vehicle control group and TW is the mean tumor weight of the treatment group.

The target in series [4] is T1, human EP4 receptor (Homo sapiens, UniProt P35408). Briefly: Assay of calcium current inhibition on EP4 receptor (FLIPR, 293 cells). The class given is cell-based. More on the design: expressed in transfected cells; host or cells: 293 cells. The following applies: 293 cells overexpressing human EP4; PGE2 at EC80; FLIPR.
T1 sequence (P35408 whole entry): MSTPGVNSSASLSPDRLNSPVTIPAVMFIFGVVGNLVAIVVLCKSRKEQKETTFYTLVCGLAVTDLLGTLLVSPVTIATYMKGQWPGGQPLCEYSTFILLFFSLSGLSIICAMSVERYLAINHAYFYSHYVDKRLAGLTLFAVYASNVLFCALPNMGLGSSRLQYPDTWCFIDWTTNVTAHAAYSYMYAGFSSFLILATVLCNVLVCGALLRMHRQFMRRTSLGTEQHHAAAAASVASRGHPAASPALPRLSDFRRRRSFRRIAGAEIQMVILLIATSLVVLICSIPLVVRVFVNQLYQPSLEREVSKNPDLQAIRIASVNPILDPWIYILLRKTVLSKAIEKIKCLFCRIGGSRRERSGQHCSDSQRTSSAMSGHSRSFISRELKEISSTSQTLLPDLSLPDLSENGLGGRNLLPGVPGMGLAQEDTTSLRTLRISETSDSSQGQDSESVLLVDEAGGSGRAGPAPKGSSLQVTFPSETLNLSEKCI
Series [5] addresses T1, human EP4 receptor. In words: Assay for EP4 antagonistic effect (cAMP, PGE2-stimulated CHO stable cell line).
Protocol: After trypsinization, cells were resuspended in a buffer (1×HBSS, 0.1% BSA, 20 mM HEPES, and 500 μM IBMX) and 8000 cells were seeded per well in 384-well plates in a seeding volume of 15 μL. A working solution the compound with a 8× concentration was prepared with an experimental buffer, and then 2.5 μL of the working solution of the compound with 8× concentration was added to the 384-well plate, respectively, and incubated at 37° C. for 30 min. An agonist PGE2 working solution with 8× concentration of (4 nM) was prepared with the experimental buffer and 2.5 μL per well was added to the 384-well plate (the final PGE2 concentration was 0.5 nM) and incubated at 37° C. for 30 min. After the reaction was completed, the amount of cAMP in the cells was quantified according to the method in the instructions of the cAMP test kit (Perkin Elmer, Cat #TRF0263). The antagonistic effects (IC50 value) were calculated for the test compounds.
Setting [6] is: intravenous administration 1 mg/kg.
[7] abbreviates: oral gavage administration 5 mg/kg.
Where [8] appears, read: male, SD, plasma, rat, intravenous administration 1 mg/kg.
[9] abbreviates: male, SD, plasma, rat, oral gavage administration 5 mg/kg.

A word on the AUC(0-t): it is the area under the concentration-time curve up to a stated or last time point. One may read the clearance as the volume of plasma or blood freed of the substance per unit of time. Low values mean inefficient removal, high ones efficient removal. Usually half-life stands for the time in which the quantity being followed falls by half. Broadly, the Cmax is the highest concentration seen after dosing. Usually Tmax stands for the time at which the peak concentration occurs. Broadly, the IC50 is the midpoint of a concentration-inhibition curve. In the case of `C[C@H](NC(=O)c1c(C(F)F)nn(C)c1Oc1cccc(C(C)(F)F)c1)c1ccc(C(=O)O)cc1` [Compound I-5, (S)-4-(1-(5-(3-(1,1-difluoroethyl)phenoxy)-3-(difluoromethyl)-1-methyl-1H-pyrazole-4-carboxamido)ethyl)benzoic Acid], the AUC(0-t) in series [1] (setting [6]) worked out at 1260 ng·h/mL; in series [1] (setting [7]), 2710 ng·h/mL; in series [2] (setting [8]) it was 1670 ng·h/mL; in series [2] (setting [9]) it was 10800 ng·h/mL. Besides, the clearance in series [1] (setting [6]) is 12.7 mL/min/kg; in series [2] (setting [8]) it was 9.5 mL/min/kg. Also, the half-life in series [1] (setting [6]) was 307 min; in series [1] (setting [7]) it was 420 min; in series [2] (setting [8]) it was 558 min; in series [2] (setting [9]), 592 min. In addition, the Vd in series [1] (intravenous administration 1 mg/kg, read-out: Vz) was found to be 5.62 L/kg; in series [2] (male, SD, plasma, rat, intravenous administration 1 mg/kg, read-out: Vz), 7.66 L/kg. Also, the Cmax in series [1] (setting [7]) was 1450 ng/mL; in series [2] (setting [9]), 993 ng/mL. Moreover, the values for the Tmax in series [1] (setting [7]) and in series [2] (setting [9]) were 19.8 min and 2 h, respectively. Further, the “exposure after oral administration relative to the control compound” value in series [2] (rats, oral administration) is reported as “about 2 times”. The “relative tumor inhibition rate TGI (%)” value in series [3] is given as 79%. For the same molecule, the IC50 was determined as 12 nM at human EP4 receptor [4] and 2.2 nM against human EP4 receptor [5].

Values taken from US12643889B2, “Synthesis of novel EP4 antagonist and use in cancer and inflammation” (Wuhan Humanwell Innovative Drug Research And Development …, priority 2020, dated 2026).
